US10040781B2, “Tank-binding kinase inhibitor compounds” (Gilead Sciences, Inc., priority 2014, dated 2018)
pIC50: −log10 of the molar value. Read-outs that look alike come from different tables or passages of the source.

Legend:
[1] = biological target: TBK1 (Homo sapiens (Human), UniProt Q9UHD2); assay: TBK1 TR-FRET enzymatic assay;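 further: phosphorylation of a biotinylated Ser/Thr peptide by purified full-length recombinant TBK1, read by TR-FRET after 240 min at 25 °C, IC50 is the geometric mean of at least four runs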
[2] = biological target: IKKε (Homo sapiens (Human), UniProt Q14164); assay: IKKε TR-FRET enzymatic assay; assay type: biochemical; conditions: read-out: IKKe IC50
[3] = biological target: hJAK2 (Homo sapiens (Human), UniProt O60674); assay: hJAK2 LANCE TR-FRET enzymatic assay; assay type: biochemical; conditions: read-out: JAK2 IC50
[4] = TR-FRET, 2×Km ATP, geometric mean of minimum four determinations

Sequence of IKKε (Q14164 whole entry): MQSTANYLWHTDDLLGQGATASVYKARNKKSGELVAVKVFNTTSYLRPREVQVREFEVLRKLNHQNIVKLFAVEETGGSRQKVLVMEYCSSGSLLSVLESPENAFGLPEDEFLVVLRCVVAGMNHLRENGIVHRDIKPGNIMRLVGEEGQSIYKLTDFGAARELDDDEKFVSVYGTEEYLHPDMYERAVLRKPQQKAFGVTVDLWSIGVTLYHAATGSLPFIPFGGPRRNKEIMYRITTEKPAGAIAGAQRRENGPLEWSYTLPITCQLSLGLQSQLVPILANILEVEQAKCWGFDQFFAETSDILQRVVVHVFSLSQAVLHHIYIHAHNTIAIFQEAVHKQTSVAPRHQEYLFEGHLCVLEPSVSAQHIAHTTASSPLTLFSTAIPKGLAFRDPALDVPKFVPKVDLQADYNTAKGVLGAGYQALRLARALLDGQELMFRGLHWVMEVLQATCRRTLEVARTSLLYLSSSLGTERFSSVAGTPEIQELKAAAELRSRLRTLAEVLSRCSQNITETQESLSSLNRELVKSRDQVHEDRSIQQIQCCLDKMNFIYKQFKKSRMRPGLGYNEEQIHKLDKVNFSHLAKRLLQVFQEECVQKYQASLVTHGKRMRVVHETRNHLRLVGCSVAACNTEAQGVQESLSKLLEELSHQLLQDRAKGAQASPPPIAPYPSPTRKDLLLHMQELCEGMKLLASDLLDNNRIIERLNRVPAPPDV
Sequence of hJAK2 (O60674 whole entry): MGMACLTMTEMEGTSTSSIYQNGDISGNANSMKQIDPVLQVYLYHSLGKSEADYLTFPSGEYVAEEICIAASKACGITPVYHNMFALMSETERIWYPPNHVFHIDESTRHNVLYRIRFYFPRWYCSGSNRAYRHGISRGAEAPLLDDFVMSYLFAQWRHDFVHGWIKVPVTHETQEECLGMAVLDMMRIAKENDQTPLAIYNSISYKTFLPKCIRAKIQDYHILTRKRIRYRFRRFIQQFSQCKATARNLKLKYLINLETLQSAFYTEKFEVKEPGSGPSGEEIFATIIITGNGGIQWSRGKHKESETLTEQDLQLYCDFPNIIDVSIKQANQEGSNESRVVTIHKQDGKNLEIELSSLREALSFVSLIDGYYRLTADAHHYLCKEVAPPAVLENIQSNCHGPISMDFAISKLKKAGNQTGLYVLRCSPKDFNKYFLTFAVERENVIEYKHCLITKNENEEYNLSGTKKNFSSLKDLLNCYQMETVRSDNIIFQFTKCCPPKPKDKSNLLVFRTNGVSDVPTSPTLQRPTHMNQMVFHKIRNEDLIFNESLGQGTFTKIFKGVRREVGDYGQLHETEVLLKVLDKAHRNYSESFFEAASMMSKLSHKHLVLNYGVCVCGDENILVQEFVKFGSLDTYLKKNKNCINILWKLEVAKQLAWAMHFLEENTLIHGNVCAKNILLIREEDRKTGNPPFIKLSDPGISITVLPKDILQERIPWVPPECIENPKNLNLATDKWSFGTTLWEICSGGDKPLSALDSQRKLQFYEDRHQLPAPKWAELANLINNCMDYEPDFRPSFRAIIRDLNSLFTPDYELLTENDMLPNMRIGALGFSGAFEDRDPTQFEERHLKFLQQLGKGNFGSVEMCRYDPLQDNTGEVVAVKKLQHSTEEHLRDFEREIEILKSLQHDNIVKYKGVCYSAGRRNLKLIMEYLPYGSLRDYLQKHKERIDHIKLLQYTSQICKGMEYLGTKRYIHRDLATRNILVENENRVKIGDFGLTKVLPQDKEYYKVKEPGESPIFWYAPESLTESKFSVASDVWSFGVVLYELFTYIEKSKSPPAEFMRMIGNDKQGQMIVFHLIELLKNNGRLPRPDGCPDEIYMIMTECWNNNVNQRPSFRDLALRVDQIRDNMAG
Sequence of TBK1 (Q9UHD2 whole entry): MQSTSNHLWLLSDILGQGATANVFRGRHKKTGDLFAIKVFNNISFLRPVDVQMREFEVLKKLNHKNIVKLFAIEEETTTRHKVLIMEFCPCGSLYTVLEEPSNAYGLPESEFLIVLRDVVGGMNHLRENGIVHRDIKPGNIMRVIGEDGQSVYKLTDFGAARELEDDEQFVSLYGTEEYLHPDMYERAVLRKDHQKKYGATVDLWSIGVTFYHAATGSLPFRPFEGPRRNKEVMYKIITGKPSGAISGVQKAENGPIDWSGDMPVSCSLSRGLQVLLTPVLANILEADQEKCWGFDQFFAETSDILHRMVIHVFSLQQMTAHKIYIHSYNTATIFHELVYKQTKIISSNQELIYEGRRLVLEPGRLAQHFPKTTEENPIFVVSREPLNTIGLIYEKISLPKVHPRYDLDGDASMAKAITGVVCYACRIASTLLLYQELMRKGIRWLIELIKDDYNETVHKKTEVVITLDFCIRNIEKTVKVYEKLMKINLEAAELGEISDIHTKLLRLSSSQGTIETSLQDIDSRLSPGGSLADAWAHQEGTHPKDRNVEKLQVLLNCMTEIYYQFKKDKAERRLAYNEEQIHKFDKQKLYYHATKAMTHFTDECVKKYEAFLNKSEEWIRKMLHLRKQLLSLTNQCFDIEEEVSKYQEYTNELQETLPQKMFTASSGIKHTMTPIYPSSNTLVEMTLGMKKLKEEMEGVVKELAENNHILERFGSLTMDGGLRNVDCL

SMILES	pIC50 [1]	pIC50 [2, 4]	pIC50 [3]	pIC50 [2]
C[C@H](O)C(=O)N1CC[C@H](COc2cc(C#N)cc(-c3ncnc(Nc4ccc(N5CCN(C6COC6)CC5)cc4)n3)c2)C1 [Example 590, 3-(((S)-1-((S)-2-hydroxypropanoyl)pyrrolidin-3-yl)methoxy)-5-(4-((4-(4-(oxetan-3-yl)piperazin-1-yl)phenyl)amino)-1,3,5-triazin-2-yl)benzonitrile]	6.28	≤ 6.00	≤ 6.00	–
N#Cc1cc(OC[C@H]2CCN(C(=O)CO)C2)cc(-c2ncnc(Nc3ccc(N4CCN(C5COC5)CC4)cc3)n2)c1 [Example 591, (S)-3-((1-(2-hydroxyacetyl)pyrrolidin-3-yl)methoxy)-5-(4-((4-(4-(oxetan-3-yl)piperazin-1-yl)phenyl)amino)-1,3,5-triazin-2-yl)benzonitrile]	6.32	≤ 6.00	6.18	–
Cn1ccc(C(=O)N2CCC(COc3ccc(-c4ncnc(Nc5ccc(N6CCN(C7COC7)CC6)cc5)n4)cc3C#N)CC2)cc1=O [Example 593, 2-((1-(1-methyl-2-oxo-1,2-dihydropyridine-4-carbonyl)piperidin-4-yl)methoxy)-5-(4-((4-(4-(oxetan-3-yl)piperazin-1-yl)phenyl)amino)-1,3,5-triazin-2-yl)benzonitrile]	6.34	6.18	≤ 6.00	–
CN1CCC(COc2ccc(-c3ncnc(Nc4ccc(N5CCN(C6COC6)CC5)cc4)n3)cc2C#N)CC1=O (stereo not drawn) [Example 596, 2-((1-methyl-2-oxopiperidin-4-yl)methoxy)-5-(4-((4-(4-(oxetan-3-yl)piperazin-1-yl)phenyl)amino)-1,3,5-triazin-2-yl)benzonitrile]	6.58	6.39	≤ 6.00	–
N#Cc1cc(-c2ncnc(Nc3ccc(N4CCN(C5COC5)CC4)cc3)n2)ccc1OCCNC(=O)c1cccnc1 [Example 598, N-(2-(2-cyano-4-(4-((4-(4-(oxetan-3-yl)piperazin-1-yl)phenyl)amino)-1,3,5-triazin-2-yl)phenoxy)ethyl)nicotinamide]	6.57	6.14	6.28	–
COCCN1CC(COc2ccc(-c3ncnc(Nc4ccc(N5CCN(C6COC6)CC5)cc4)n3)cc2C#N)CC1=O (stereo not drawn) [Example 601, 2-((1-(2-methoxyethyl)-5-oxopyrrolidin-3-yl)methoxy)-5-(4-((4-(4-(oxetan-3-yl)piperazin-1-yl)phenyl)amino)-1,3,5-triazin-2-yl)benzonitrile]	6.00	–	≤ 6.00	≤ 6.00
N#Cc1cc(-c2ncnc(Nc3ccc(N4CCN(C5COC5)CC4)cc3)n2)ccc1OCCN1CCN(C(N)=O)CC1 [Example 606, 4-(2-(2-cyano-4-(4-((4-(4-(oxetan-3-yl)piperazin-1-yl)phenyl)amino)-1,3,5-triazin-2-yl)phenoxy)ethyl)piperazine-1-carboxamide]	6.30	–	≤ 6.00	6.31
N#Cc1cc(-c2ncnc(Nc3ccc(N4CCN(C5COC5)CC4)cc3)n2)ccc1OCCN1CCNC(=O)C1 [Example 608, 5-(4-((4-(4-(oxetan-3-yl)piperazin-1-yl)phenyl)amino)-1,3,5-triazin-2-yl)-2-(2-(3-oxopiperazin-1-yl)ethoxy)benzonitrile]	6.18	–	≤ 6.00	≤ 6.00
Cc1cc(C)n(CCOc2ccc(-c3ncnc(Nc4ccc(N5CCN(C6COC6)CC5)cc4)n3)cc2C#N)n1 [Example 609, 2-(2-(3,5-dimethyl-1H-pyrazol-1-yl)ethoxy)-5-(4-((4-(4-(oxetan-3-yl)piperazin-1-yl)phenyl)amino)-1,3,5-triazin-2-yl)benzonitrile]	6.00	–	6.63	≤ 6.00
N#Cc1cc(-c2ncnc(Nc3ccc(N4CCN(C5COC5)CC4)cc3)n2)ccc1O[C@H]1CCN(c2cccnc2)C[C@H]1F [Example 611, 2-(((3R,4S)-3-fluoro-1-(pyridin-3-yl)piperidin-4-yl)oxy)-5-(4-((4-(4-(oxetan-3-yl)piperazin-1-yl)phenyl)amino)-1,3,5-triazin-2-yl)benzonitrile]	6.00	–	≤ 6.00	≤ 6.00

Stronger by pIC50 [1], values ahead:

pIC50 [1]	pIC50 [2, 4]	pIC50 [3]	pIC50 [2]	SMILES
6.77	6.63	≤ 6.00	–	N#Cc1cc(-c2ncnc(Nc3ccc(N4CCN(C5COC5)CC4)cc3)n2)ccc1OCC1CCC(=O)N1 (stereo not drawn) [Example 594, 5-(4-((4-(4-(oxetan-3-yl)piperazin-1-yl)phenyl)amino)-1,3,5-triazin-2-yl)-2-((5-oxopyrrolidin-2-yl)methoxy)benzonitrile]
6.89	–	7.16	6.76	C[C@H](O)C(=O)N1CC[C@H](Nc2ccc(-c3ncnc(Nc4ccc(N5CCN(C6COC6)CC5)cc4)n3)cc2C#N)[C@H](F)C1 [Example 613, 2-(((3R,4S)-3-fluoro-1-((S)-2-hydroxypropanoyl)piperidin-4-yl)amino)-5-(4-((4-(4-(oxetan-3-yl)piperazin-1-yl)phenyl)amino)-1,3,5-triazin-2-yl)benzonitrile]
6.90	–	≤ 6.00	6.21	N#Cc1cc(-c2ncnc(Nc3ccc(N4CCN(C5COC5)CC4)cc3)n2)ccc1OCCNC(N)=O [Example 602, 1-(2-(2-cyano-4-(4-((4-(4-(oxetan-3-yl)piperazin-1-yl)phenyl)amino)-1,3,5-triazin-2-yl)phenoxy)ethyl)urea]
7.02	6.88	≤ 6.00	–	N#Cc1cc(-c2ncnc(Nc3ccc(N4CCN(C5COC5)CC4)cc3)n2)ccc1OCCC1CNC(=O)C1 (stereo not drawn) [Example 597, 5-(4-((4-(4-(oxetan-3-yl)piperazin-1-yl)phenyl)amino)-1,3,5-triazin-2-yl)-2-(2-(5-oxopyrrolidin-3-yl)ethoxy)benzonitrile]
7.16	7.05	≤ 6.00	–	Cn1ccc(C(=O)N2CCC(Oc3ccc(-c4ncnc(Nc5ccc(N6CCN(C7COC7)CC6)cc5)n4)cc3C#N)CC2)cc1=O [Example 595, 2-((1-(1-methyl-2-oxo-1,2-dihydropyridine-4-carbonyl)piperidin-4-yl)oxy)-5-(4-((4-(4-(oxetan-3-yl)piperazin-1-yl)phenyl)amino)-1,3,5-triazin-2-yl)benzonitrile]
7.43	–	6.29	6.75	N#Cc1cc(-c2ncnc(Nc3ccc(N4CCN(C5COC5)CC4)cc3)n2)ccc1OCCc1cnc2ncnn2c1 [Example 599]
7.52	7.31	6.63	–	N#Cc1cc(-c2ncnc(Nc3ccc(N4CCN(C5COC5)CC4)cc3)n2)ccc1O[C@H]1CCN(C(=O)C2(C#N)CC2)C[C@H]1F [Example 587, 2-(((3R,4S)-1-(1-cyanocyclopropanecarbonyl)-3-fluoropiperidin-4-yl)oxy)-5-(4-((4-(4-(oxetan-3-yl)piperazin-1-yl)phenyl)amino)-1,3,5-triazin-2-yl)benzonitrile]
7.55	–	6.02	7.43	N#Cc1cc(-c2ncnc(Nc3ccc(N4CCN(C5COC5)CC4)cc3)n2)ccc1OCC1CCNC(=O)C1 (stereo not drawn) [Example 604, 5-(4-((4-(4-(oxetan-3-yl)piperazin-1-yl)phenyl)amino)-1,3,5-triazin-2-yl)-2-((2-oxopiperidin-4-yl)methoxy)benzonitrile]
7.60	–	6.57	7.35	N#Cc1cc(-c2ncnc(Nc3ccc(N4CCN(C5COC5)CC4)cc3)n2)ccc1O[C@H]1CCN(C(=O)C2(O)CNC2)C[C@H]1F [Example 614, 2-(((3R,4S)-3-fluoro-1-(3-hydroxyazetidine-3-carbonyl)piperidin-4-yl)oxy)-5-(4-((4-(4-(oxetan-3-yl)piperazin-1-yl)phenyl)amino)-1,3,5-triazin-2-yl)benzonitrile]
7.68	7.64	6.62	–	N#Cc1cc(-c2ncnc(Nc3ccc(N4CCN(C5COC5)CC4)cc3)n2)ccc1OCCn1ccnc1 [Example 592, 2-(2-(1H-imidazol-1-yl)ethoxy)-5-(4-((4-(4-(oxetan-3-yl)piperazin-1-yl)phenyl)amino)-1,3,5-triazin-2-yl)benzonitrile]
7.68	–	6.79	7.80	N#Cc1cc(-c2ncnc(Nc3ccc(N4CCN(C5COC5)CC4)cc3)n2)ccc1OCC1CNC(=O)O1 (stereo not drawn) [Example 607, 5-(4-((4-(4-(oxetan-3-yl)piperazin-1-yl)phenyl)amino)-1,3,5-triazin-2-yl)-2-((2-oxooxazolidin-5-yl)methoxy)benzonitrile]
7.74	7.31	≤ 6.00	–	N#Cc1cc(-c2ncnc(Nc3ccc(N4CCN(C5COC5)CC4)cc3)n2)ccc1O[C@H]1CCN(C(=O)[C@@H]2C[C@H](O)CN2)C[C@H]1F [Example 588, 2-(((3R,4S)-3-fluoro-1-((2S,4S)-4-hydroxypyrrolidine-2-carbonyl)piperidin-4-yl)oxy)-5-(4-((4-(4-(oxetan-3-yl)piperazin-1-yl)phenyl)amino)-1,3,5-triazin-2-yl)benzonitrile]
7.74	7.55	6.07	–	N#Cc1cc(-c2ncnc(Nc3ccc(N4CCN(C5COC5)CC4)cc3)n2)ccc1O[C@H]1CCN(C(=O)[C@@H]2C[C@@H](O)CN2)C[C@H]1F [Example 589, 2-(((3R,4S)-3-fluoro-1-((2S,4R)-4-hydroxypyrrolidine-2-carbonyl)piperidin-4-yl)oxy)-5-(4-((4-(4-(oxetan-3-yl)piperazin-1-yl)phenyl)amino)-1,3,5-triazin-2-yl)benzonitrile]
8.52	–	6.22	8.70	Cc1noc(C(=O)N2CC[C@H](Oc3ccc(-c4ncnc(Nc5ccc(N6CCN(C7COC7)CC6)cc5)n4)cc3C#N)[C@H](F)C2)n1 [Example 612, 2-(((3R,4S)-3-fluoro-1-(3-methyl-1,2,4-oxadiazole-5-carbonyl)piperidin-4-yl)oxy)-5-(4-((4-(4-(oxetan-3-yl)piperazin-1-yl)phenyl)amino)-1,3,5-triazin-2-yl)benzonitrile]
